From article PMC11311697, “Exploring the Role of Neuropeptide PACAP in Cytoskeletal Function Using Spectroscopic Methods” (International Journal of Molecular Sciences, 2024)
Ends that are not written are not given here.

Columns and labels:
[1] = test system: Ca^2+-G actin and Ca^2+-F actin; conditions: DSC; ref [81],[82]; cited from earlier work
From the text: In previous investigations, we employed differential scanning calorimetry (DSC) to explore the impact of various PACAP fragments on the thermal stability of Ca^2+-G actin and Ca^2+-F actin.

Ca^2+-F-actin = test system: Ca^2+-F-actin; set-up: method as in doi:10.1007/s10973-024-13286-2, doi:10.1007/s10973-024-13289-z; conditions: DSC; ref [81],[82]; cited from earlier work
[2] = test system: adenylate cyclase, rat pituitary cells; conditions: versus VIP, ref [2]; cited from earlier work
From the text: Pituitary adenylate cyclase-activating polypeptide (PACAP) was first isolated from the sheep hypothalamus in 1989 [1, 2]. It belongs to the vasoactive intestinal peptide (VIP)/glucagon/secretin peptide family, sharing 68% structural homology with VIP, but stimulating adenylate cyclase activity 1000 times more effectively in rat pituitary cells. PACAP plays crucial roles in the nervous and endocrine systems, acting as a hormone, neurotransmitter, vasodilator, and neuromodulator, and potentially having neurotrophic or neuroprotective functions. PACAP exists in two biologically ...

[3] = test system: streptozotocin-induced diabetes model; set-up: method as in PMID 34639032; conditions: ref [76]; cited from earlier work
Tau = conditions: ref [1],[79]; cited from earlier work
From the text: (§1) As mentioned above, PACAP plays a significant role in mitigating neuronal damage and promoting cell survival. […] The misfolding and aggregation of proteins such as Tau are hallmarks of neurodegenerative diseases like Alzheimer’s.

caspase-3 = conditions: ref [1],[79]; cited from earlier work
From the text: as §1

[4] = test system: traumatic brain injury (TBI); conditions: intracerebroventricular (icv); brain regions such as corticospinal tract and medial longitudinal fasciculus; ref [45],[46]; cited from earlier work
From the text: (§2) PACAP synergizes with multiple factors to promote neurite growth in different cell lines. It works with nerve growth factor (NGF) and VIP to stimulate neuritogenesis, increasing neurite length and branching, similar to brain-derived neurotrophic factor (BDNF). […] In traumatic central nervous system (CNS) injuries, PACAP has cytoprotective and antiapoptotic effects. It increases dihydropyrimidinase li ...

[5] = test system: dihydropyrimidinase like 2 (DPYL2); conditions: ischemic brain tissue; ref [43],[44]; cited from earlier work
From the text: as §2

[6] = test system: neurite growth in different cell lines; conditions: ref [40],[41],[42]; cited from earlier work
From the text: as §2

astrocyte = conditions: by increasing cAMP levels; ref [57]; cited from earlier work
From the text: The polymerization of G-actin into filamentous actin (F-actin) is essential for maintaining cellular structural integrity and supporting dynamic processes. Actin filaments, which form the cell’s cytoskeleton, provide mechanical strength and stability. The F-actin network supports various cellular functions, including cell migration, division, and intracellular transport, by continuously polymerizing and depolymerizing. The dynamic nature of F-actin allows cells to adapt to environmental changes and respond to signals, interacting with regulatory proteins to influence membrane protr ...

PAC1 receptor = conditions: ref [7],[8]; cited from earlier work
From the text: PACAP can bind to VPAC1 (VIP receptor type 1) and VPAC2 (VIP receptor […]) receptors, which also bind VIP, due to their structural similarity. […] The high specificity of PAC1 receptors for PACAP makes them ideal for studying PACAP–receptor interactions. PAC1 receptors, being GS protein-coupled receptors (GPCRs ...

G-actin = G-actin (Oryctolagus cuniculus, UniProt P68135); test: Steady-state anisotropy of Alexa488NHS-labeled G-actin with PACAP; format: binding, rabbit; conditions: 0.2 µM A488NHS-labeled G-actin; PACAP 0 to 5 µM; 50 mM KCl, 1 mM MgCl2, 4 μM LatA, 1 mM EGTA, G-buffer pH 7.8; 20 °C; ex 488 nm; mean ± SD, at least three independent experiments; read-out: dissociation equilibrium constant (KD), in Figure 3
Description: Actin was prepared from acetone-dried muscle powder from rabbit skeletal muscle according to the method of Spudich and Watt modified by Mossakowska et al.. Shortly, the acetone-dried powder was extracted in G-buffer (4 mM TRIS (Sigma-Aldrich, Saint Louis, MO, USA), 0.1 mM CaCl2 (Sigma-Aldrich, Saint Louis, MO, USA), 0.2 mM ATP (VWR International LLC, Radnor, PA, USA), 0.5 mM DTT (VWR International LLC, Radnor, PA, USA), pH 7.8), mixed on ice with a magnetic stirrer (30 min, 80 rpm). The mixture was filtered through quadruple-layered gauze, supplemented with additional G-buffer, mixed further (40 min, 80 rpm), filtered again, and centrifuged (30,000 rpm, 4 °C, 30 min). […] After clarification centrifugation (80,000 rpm, 30 min, 4 °C), the supernatant was removed and actin absorbance was measured using a spectrophotometer to determine its concentration. […]
For our investigation, we utilized A488NHS green-fluorescent dye, which remains stable between pH 4 and 10, with peak emission when excited at 488 nm. […] In vitro anisotropy and fluorescence emission measurements involved 0.2 µM Alexa488NHS-Mg^2+-ATP-G-actin (Alexa488NHS labeled G-actin) with varying PACAP concentrations. […] The cuvette (Hellma® fluorescence, ultra Micro, Suprasil® quartz, spectral range 200–2500 nm) had optical path lengths of ex = 10 mm/em = 2 mm. […]

## PACAP6-27: PACAP fragment examined by DSC in earlier studies (FTDSYSRYRKQMAVKKYLAAVL; ends and bridges not checked; UniProt P18509 137-158, looked up, fragment)
[1]
  effect on thermal properties of actin (in words): altered the thermal stability of actin, albeit to a lesser degree
Ca^2+-F-actin
  denaturation temperature of Ca2+-F-actin compared with control (in words): did not show significant changes

## Pituitary adenylate cyclase-activating polypeptide [PACAP]
[2]
  stimulation of adenylate cyclase activity relative to VIP: 1000 times
[3]
  effect on morphological signs of nerve injury and hyperalgesia (in words): reduced morphological signs of nerve injury (axon–myelin separation, elevated mitochondrial number in myelinated axons, unmyelinated fiber atrophy, and basement membrane thickening of endoneurial vessels) while also attenuating pressure and touch hyperalgesia
Tau
  effect on Tau phosphorylation (in words): enhances Tau phosphorylation and prevents its dephosphorylation
caspase-3
  effect on caspase-3 activity (in words): inhibits caspase-3 activity
[4]
  effect on axonal swellings and amyloid plaque accumulation (in words): reduces axonal swellings and amyloid plaque accumulation
[5]
  effect on DPYL2 protein levels (in words): increases dihydropyrimidinase like 2 (DPYL2) protein levels in ischemic brain tissue
[6]
  effect on axon growth / neurite growth (in words): enhances axon length and cell body size but does not affect dendrite length
astrocyte
  effect on actomyosin stress fibers (in words): promotes actomyosin stress fiber depolymerization

## vasoactive intestinal peptide [VIP]
PAC1 receptor
  binding to PAC1 receptor (in words): low affinity

## CSCC[C@H](NC(=O)[C@H](CCC(N)=O)NC(=O)[C@H](CCCCN)NC(=O)[C@H](CCCNC(=N)N)NC(=O)[C@H](Cc1ccc(O)cc1)NC(=O)[C@H](CCCNC(=N)N)NC(=O)[C@H](CO)NC(=O)[C@H](Cc1ccc(O)cc1)NC(=O)[C@H](CO)NC(=O)[C@H](CC(=O)O)NC(=O)[C@@H](NC(=O)[C@@H](N)Cc1ccccc1)[C@@H](C)O)C(=O)N[C@@H](C)C(=O)N[C@H](C(=O)N[C@@H](CCCCN)C(=O)N[C@@H](CCCCN)C(=O)N[C@@H](Cc1ccc(O)cc1)C(=O)N[C@@H](CC(C)C)C(=O)N[C@@H](C)C(=O)N[C@@H](C)C(=O)N[C@H](C(=O)N[C@@H](CC(C)C)C(=O)NCC(=O)N[C@@H](CCCCN)C(=O)N[C@@H](CCCNC(=N)N)C(=O)N[C@@H](Cc1ccc(O)cc1)C(=O)N[C@@H](CCCCN)C(=O)N[C@@H](CCC(N)=O)C(=O)N[C@@H](CCCNC(=N)N)C(=O)N[C@H](C(=O)N[C@@H](CCCCN)C(=O)N[C@@H](CC(N)=O)C(=O)N[C@@H](CCCCN)C(N)=O)C(C)C)C(C)C)C(C)C [PACAP6-38]
G-actin
  Kd: 150.46 ± 0.03 nM

## CC[C@H](C)[C@H](NC(=O)CNC(=O)[C@H](CC(=O)O)NC(=O)[C@H](CO)NC(=O)[C@@H](N)Cc1cnc[nH]1)C(=O)N[C@@H](Cc1ccccc1)C(=O)N[C@H](C(=O)N[C@@H](CC(=O)O)C(=O)N[C@@H](CO)C(=O)N[C@@H](Cc1ccc(O)cc1)C(=O)N[C@@H](CO)C(=O)N[C@@H](CCCNC(=N)N)C(=O)N[C@@H](Cc1ccc(O)cc1)C(=O)N[C@@H](CCCNC(=N)N)C(=O)N[C@@H](CCCCN)C(=O)N[C@@H](CCC(N)=O)C(=O)N[C@@H](CCSC)C(=O)N[C@@H](C)C(=O)N[C@H](C(=O)N[C@@H](CCCCN)C(=O)N[C@@H](CCCCN)C(=O)N[C@@H](Cc1ccc(O)cc1)C(=O)N[C@@H](CC(C)C)C(=O)N[C@@H](C)C(=O)N[C@@H](C)C(=O)N[C@H](C(=O)N[C@@H](CC(C)C)C(=O)NCC(=O)N[C@@H](CCCCN)C(=O)N[C@@H](CCCNC(=N)N)C(=O)N[C@@H](Cc1ccc(O)cc1)C(=O)N[C@@H](CCCCN)C(=O)N[C@@H](CCC(N)=O)C(=O)N[C@@H](CCCNC(=N)N)C(=O)N[C@H](C(=O)N[C@@H](CCCCN)C(=O)N[C@@H](CC(N)=O)C(=O)N[C@@H](CCCCN)C(N)=O)C(C)C)C(C)C)C(C)C)[C@@H](C)O [PACAP38, Pituitary adenylate cyclase-activating polypeptide 38]
G-actin
  Kd: 97.22 ± 0.01 nM
